# Source: PMC5555576, “Selective small-chemical inhibitors of protein arginine methyltransferase 5 with anti-lung cancer activity” (PLoS ONE, 2017)
# Assays:
# [1] = tested on: A549 cells; assay: Cell cycle distribution by flow cytometry; type: cell-based; settings: 20 μM, 2 days
# Protocol: Supplementary file pone.0181601.s002.tif: S2 Fig Identified compounds arrested cell cycle at the G1 phase. A549 cells were infected with the lentivirus expressing non-target (NT) or PRMT5 shRNA as described previously by us. A549 cells were grown in the presence of DMSO or 20 μM of the compound C5, C9 or C11 for 2 days. A, PRMT5 protein levels in A549 cells. Whole cell lysates were prepared and submitted for Western blot analysis with anti-PRMT5 (top) or anti-actin (bottom) antibody. B, Cell cycle distributions. Cells were harvested, washed with phosphate-buffered saline (PBS) and fixed in 70% ethanol at 4 °C overnight. Cells were collected and stained with propidium iodide (PI). The cell-cycle distributions were determined by flow cytometry analysis (BD Accuri^TM C6 Flow Cyometer). (TIF) Click here for additional data file.
# [2] = biological target: T1, PRMT5 F225M (Homo sapiens, UniProt O14744, F327M); assay: Radioactive methyltransferase assay, mutant PRMT5; type: biochemical; settings: F225M mutant PRMT5, SmD3 substrate, Fig 4D
# T1 construct: His6; made in house; host or cells: bacteria (E. coli BL21(ED3) for the wild type)
# Protocol: Methylation reactions were performed as previously described with a few modifications. Reaction mixtures (40 μl) containing 1.2 μg of PRMT5, 98 ng of PRMT1 or 98 ng of PRMT3; 2 μg of SmD3 or histones; 1 μCi of S-[methyl-^3H]adenosylmethionine (H^3-AdoMet; PerkinElmer); and 5 μM AdoMet were incubated in 50 mM Tris-HCl (pH 7.5)–1 mM EGTA–1 mM EDTA at 30°C for 2 h. Reaction mixtures (20 μl) were boiled in 5 μl of 5x SDS sample buffer and separated on a 15% polyacrylamide gel. Gels were fixed for 30 min in 40% methanol–10% acetic acid, incubated in 20 ml of Amplify (Amersham Life Science) for 10 min, dried and exposed to X-ray film at -80°C. IC50 was calculated by linear regression analysis of percent inhibition. The other half (20 μl) of each reaction mixture was spread onto DE81 chromatography paper discs (Whatman). The paper discs were washed 4 times with 50 mM NaHCO3 and dried. The amounts of methylated products were quantified by liquid scintillation.
# The inhibitory activity of the compounds may stem from this interaction. To test this possibility, we conducted site-directed mutagenesis to mutate Phe225 in human PRMT5 (corresponding to Phe379 in the C. elegans PRMT5) to Met. The mutated PRMT5 was expressed in bacteria and purified by Ni-nitrilotriacetic acid (Ni-NTA) affinity chromatography (Fig 4A). The activity of the mutant PRMT5 was examined by the radioactive methyltransferase assay. […] The IC50 values for the mutant PRMT5 increased from 4.3 to 183 folds higher than those for the wild type PRMT5 (Fig 4D). […] The results also can help explain the specificity of the compounds to PRMT5. However, the contribution of this interaction to inhibition varies among the compounds. For example, compound C2 interacts with three amino acid residues (Lys451, Glu450, and Phe379) (Fig 3A) with the mutation of Phe to Met resulting in a 50-times higher IC50 (Fig 4C and 4D).
# Fig 4 The conserved phenylalanine residue in PRMT5 is critical for inhibition by the five compounds. A, DS-PAGE of recombinant wild type (WT) and F225M mutant (MT) PRMT5. The gel was stained with Coomassie Brilliant Blue R250. A band corresponding to an unknown bacterial protein is indicated (star). B, The F225M mutation increased the methytransferase activity of PRMT5. In vitro methylation reactions were performed with recombinant wild type (lanes 2–4) or mutant (lanes 5–7) PRMT5 (1.2, 2.4 or 4.8 μg) and SmD3 (2 μg) as the substrate. C, The F225M mutation in PRMT5 decreased inhibition of arginine methylation by the compounds. The reaction mixture contained SmD3 (2 μg); wild type or mutant PRMT5 (1.2 μg); and 1, 10 or 100 μM compounds as indicated. D, The F225M mutation in PRMT5 […] of the compounds, as determined by quantitation and analysis of methylation assay results. TEXT PRINTED IN THE PICTURE: (D) C2: IC50 (μM) PRMT5: 0.1; IC50 (μM) PRMT5 F225M: 5.0 | (D) C5: IC50 (μM) PRMT5: 0.8; IC50 (μM) PRMT5 F225M: 3.5 | (D) C6: IC50 (μM) PRMT5: 0.5; IC50 (μM) PRMT5 F225M: 7.0 | (D) C9: IC50 (μM) PRMT5: 6.0; IC50 (μM) PRMT5 F225M: 45.0 | (D) C11: IC50 (μM) PRMT5: 0.3; IC50 (μM) PRMT5 F225M: 55.0
# [3] = tested on: A549 cells; assay: Cellular permeability and stability by HPLC of cell extracts; type: in vitro ADME; settings: for decrease of concentration inside the cells: 20 μM for 2 h, within 10 h after removal; for concentration inside cells compared with the medium: 2 h; for cell permeability: 2 hr in medium with compound
# Protocol: Waters 2695 HPLC System and a C18 column (Symmetry, 3.6 x 75 mm) were used. The column was equilibrated with 10% acetonitrile and eluated with a linear gradient from 10% acetonitrile to 100% acetonitrile in 60 min. Compounds were dissolved in 10% acetonitrile and the purchased compounds (ChemBridge) were used as the standards.
# We then determined whether the identified compounds are cell-permeable. Lung cancer A549 cells were cultured in medium containing various concentrations of the respective compound for 2 hr. Cells were harvested and washed with PBS. The compounds were extracted with ethyl acetate from cells and analyzed by HPLC with a C18 column using the purchased compound as the standard. Compounds C2, C5, C9 and C11 are cell-permeable (Fig 6A), which is consistent with their tPSAs <140 angstroms square (Table 1). […] We even noticed that the compound C5 crystalized inside the cells.
# A, The cellular permeability of identified compounds. Lung cancer A549 cells were cultured in the presence of various concentrations of compounds for 2h and the compound concentrations in the cell were determined by HPLC chromatography with a C18 column. B, The cellular stability of identified compounds. Lung cancer A549 cells were cultured in the presence of compounds (20 μM) for 2 h and then the medium was removed. Cells were washed with the medium and cultured for additional 5 or 10 h after the compounds were removed. The compound concentrations in the cell were determined by HPLC chromatography with a C18 column. […] A549 cells were grown in the presence of DMSO or compound C5, C9 or C11 (20 μM). Histones were purified and analyzed by SDS-PAGE stained with Commassie blue (lanes 1–4, bottom) or by Western blot with anti-symmetric dimethyl arginine antibody (SYM10) (lanes 1–4, top). B-Raf was immunoprecipitated with anti-B-Raf antibody from whole cell lysates and submitted for Western blot analysis with anti-B-Raf (lanes 5 and 6, bottom) or anti-symmetric dimethyl arginine (lanes 5 and 6, top) antibody.
# T1 sequence (O14744 whole entry F327M): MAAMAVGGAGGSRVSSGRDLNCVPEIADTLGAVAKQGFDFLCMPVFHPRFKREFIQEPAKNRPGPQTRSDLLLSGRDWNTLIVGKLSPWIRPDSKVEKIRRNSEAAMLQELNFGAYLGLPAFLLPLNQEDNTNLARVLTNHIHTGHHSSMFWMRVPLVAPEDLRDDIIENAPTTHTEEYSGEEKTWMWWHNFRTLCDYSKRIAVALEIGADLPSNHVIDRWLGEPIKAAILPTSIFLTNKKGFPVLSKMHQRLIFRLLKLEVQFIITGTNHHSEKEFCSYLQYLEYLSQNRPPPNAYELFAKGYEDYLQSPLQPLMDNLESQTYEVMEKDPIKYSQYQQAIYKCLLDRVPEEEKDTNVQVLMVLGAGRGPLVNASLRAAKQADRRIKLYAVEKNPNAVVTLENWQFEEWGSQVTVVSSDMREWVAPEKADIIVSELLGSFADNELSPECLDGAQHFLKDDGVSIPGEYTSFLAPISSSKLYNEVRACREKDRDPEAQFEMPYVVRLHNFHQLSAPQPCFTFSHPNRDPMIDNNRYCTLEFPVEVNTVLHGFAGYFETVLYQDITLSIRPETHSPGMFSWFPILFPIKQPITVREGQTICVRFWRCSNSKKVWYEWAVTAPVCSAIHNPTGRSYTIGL
IC50 [2] [µM],decrease of concentration inside the cells [3],concentration inside cells compared with the medium [3],cell permeability [3],Structure (SMILES),cell cycle effect [1],accumulation inside cells [3] [fold]
3.5,about 2 folds,higher than those in the medium,cell-permeable,CCn1c(=O)[nH]c2cc(C(=O)Nc3ccc(OC)cc3)ccc2c1=O [Compound C5],arrested the cell cycle at the G1 phase,–
55,about 2 folds,higher than those in the medium,cell-permeable,Cn1cc(C(c2ccc(O)c(O)c2O)c2cn(C)c3ccccc23)c2ccccc21 [Compound C11],arrested the cell cycle at the G1 phase,–

Structure (SMILES),IC50 [2] [µM],decrease of concentration inside the cells [3],concentration inside cells compared with the medium [3],cell permeability [3],cell cycle effect [1],accumulation inside cells [3] [fold]
COc1ccc(Nc2ncnc3c2cnn3Cc2ccc(C)cc2)cc1 [Compound C9],45,about 2 folds,higher than those in the medium,cell-permeable,arrested the cell cycle at the G1 phase,5
